Where no end group is shown, it is not given here.

The nature of data set [1]: Plasma stability of VIP peptide complex (remaining rate in rat plasma). Type of data set: in vitro ADME, SD rats. The settings on record: VIP complexes, 37° C.; for remaining at 8 h, 0.5 μmol/L / remaining at 48 h, 0.5 μmol/L: SD; for remaining at 8 h, 0.5 μmol/L: read-out: Remaining rate in plasma after 8 hours (%); for remaining at 48 h, 0.5 μmol/L: read-out: Remaining rate in plasma after 48 hours; for Remaining rate in plasma after 8 hours (%) / Remaining rate in plasma after 48 hours: 0.5 μmol/L.
Description: The plasma stability was evaluated in vitro, in order to inspect the biostability of the VIP peptide complex.
SD rats were anesthetized with diethyl ether, whole blood was collected, and a plasma fraction was separated therefrom. The VIP or VIP-peptide complex was added to the plasma so that the final concentration thereof was 0.5 μmol/L, and the mixture was incubated at 37° C. A sample was recovered after 0, 8 or 48 hours, and a remaining rate was evaluated by an HPLC/MS measurement of an amount of the VIP or VIP peptide complex.

In the next data set the target is T1, endogenous VIP receptor (Homo sapiens, UniProt P41587).
T1 construct: expressing an endogenous VIP receptor; host or cells: SUP-T1 human T-cell line
T1 sequence (P41587 24-438): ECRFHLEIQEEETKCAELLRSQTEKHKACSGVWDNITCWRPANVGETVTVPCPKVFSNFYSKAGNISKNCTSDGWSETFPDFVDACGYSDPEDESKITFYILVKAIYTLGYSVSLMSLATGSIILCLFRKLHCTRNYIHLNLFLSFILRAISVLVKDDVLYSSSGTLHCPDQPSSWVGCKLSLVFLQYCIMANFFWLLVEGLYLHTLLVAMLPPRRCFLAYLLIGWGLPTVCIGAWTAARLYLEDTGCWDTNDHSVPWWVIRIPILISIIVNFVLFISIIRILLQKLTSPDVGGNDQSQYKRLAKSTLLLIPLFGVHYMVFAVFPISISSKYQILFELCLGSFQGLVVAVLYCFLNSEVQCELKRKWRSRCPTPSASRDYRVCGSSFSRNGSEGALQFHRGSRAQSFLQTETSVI
Nature of the data set: cAMP productivity in SUP-T1 cells. As to conditions: 3-3000 nM, IBMX, 30 minutes. Type of data set: cell-based. As to the method: A productivity of cAMP was analyzed in vitro, in order to evaluate the activity intensity of the VIP peptide complexes showing the plasma stability in Experimental Example 4.
An intracellular cAMP productivity was evaluated using SUP-T1 cells which were derived from human T-cell, expressing an endogenous VIP receptor (purchased from ATCC). The SUP-T1 cells which were subjected to suspension culture for 48 or more hours were moved to a tube, and the cells were washed twice with a medium (RPMI-1640). After that, a medium including IBMX (3-isobutyl-1-methylxanthine), which was an inhibitor of a catabolic enzyme of the cAMP, was added thereto, and the mixture was incubated at 37° C. for 15 minutes. After centrifugation, the supernatant was removed, and an IBMX-containing medium including the VIP peptide complex was added thereto. The reaction was performed at 37° C. for 30 minutes. After the reaction, the tube was centrifuged, the supernatant was removed, and the cell lysate was added thereto. The mixture was incubated at 37° C. for 30 minutes to dissolve the cells, and the productivity was evaluated by the measurement of the cAMP. The cAMP measurement was performed using an enzyme-linked immunosorbent assay (ELISA) by chemiluminescence detection.
The activity intensity (%) of the VIP peptide complex was calculated according to the following formula.
Activity Intensity (%)=[{(the maximum amount of the cAMP produced in each VIP peptide complex)/(the maximum amount of the cAMP produced in native VIP)]×100

For a further data set, the target named is T2, endogenous SSTR 5 (Mus musculus, UniProt O08858).
T2 construct: expressing an endogenous SSTR 5; endogenous in cells; host or cells: MIN 6 mouse insulinoma cells (obtained from a person)
T2 sequence (O08858 1-362): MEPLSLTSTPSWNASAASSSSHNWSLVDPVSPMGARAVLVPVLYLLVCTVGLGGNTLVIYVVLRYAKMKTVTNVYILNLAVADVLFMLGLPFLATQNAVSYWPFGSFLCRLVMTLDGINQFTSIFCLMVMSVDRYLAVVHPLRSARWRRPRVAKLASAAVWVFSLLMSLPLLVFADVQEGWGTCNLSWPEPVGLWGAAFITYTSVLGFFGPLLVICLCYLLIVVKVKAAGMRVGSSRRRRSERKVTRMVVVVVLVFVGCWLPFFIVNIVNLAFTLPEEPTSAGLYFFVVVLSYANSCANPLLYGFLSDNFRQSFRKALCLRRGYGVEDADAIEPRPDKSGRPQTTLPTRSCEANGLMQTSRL
Description: Suppressibility of insulin secretion in MIN 6 cells. The format is cell-based. As to conditions: 20 mM glucose, 1-1000 nM. As to the method: The suppressibility of insulin secretion was evaluated using MIN 6 (obtained from a person) which was an insulinoma cell derived from a mouse, expressing an endogenous SSTR 5. MIN 6 was seeded on a multi-plate, which was cultivated at 37° C. for 48 hours. […] A supernatant thereof was recovered, and an amount of insulin secreted was measured. The measurement of the insulin was performed in an enzyme-linked immunosorbent assay (ELISA), and an absorbance was measured at 450 nm (a sub-wavelength: 620 nm) after the addition of a substrate.
In this experiment, the activity evaluations of the native SRIF (Comparative Example 15) and the GAm (28-44)-SRIF-NH2(Example 29) were performed in a concentration of 1, 3, 10, 30, 100, 300, and 1000 nM, and the maximum suppression rate (%) of the insulin secretion was calculated. The maximum suppression rate (%) of the insulin secretion in the somatostatin peptide complex was calculated according to the following formula. Maximum Suppression Rate (%) of Insulin Secretion (%)=[{(the maximum value of the suppression of the insulin secretion in the SRIF peptide complex)/(the maximum value of the suppression of the insulin secretion in the native SRIF)]×100

Data set [2] in a line: Plasma stability of somatostatin peptide complex (remaining rate in rat plasma).
Description: The plasma stability was evaluated in vitro, in order to inspect the biostability of the somatostatin peptide complex.
SD rats were anesthetized with diethyl ether, whole blood was collected, and a plasma fraction was separated therefrom. The somatostatin or somatostatin peptide complex was added to the plasma so that the final concentration thereof was 0.5 μmol/L, and the mixture was incubated at 37° C. A sample was recovered after 0, 8 or 48 hours, and a remaining rate was evaluated by an HPLC/MS measurement of an amount of the somatostatin or somatostatin peptide complex.
Data set [3] can be described thus: Plasma stability of ghrelin peptide complex (remaining rate in rat plasma). Type of data set: in vitro ADME, SD rats. The settings on record: 37° C. As for the experimental part:
Evaluation was performed in a manner in which after the treatment of the ghrelin or ghrelin peptide complex in plasma for a pre-determined time, an amount of change of the ghrelin or ghrelin peptide complex undecomposed was measured by an HPLC/MS.

As to `CC[C@H](C)[C@H](NC(=O)[C@H](CCC(=O)O)NC(=O)[C@H](CC(=O)O)NC(=O)[C@@H](NC(=O)[C@H](CC(C)C)NC(=O)[C@H](CC(N)=O)NC(=O)[C@H](CC(C)C)NC(=O)[C@@H](NC(=O)[C@H](CO)NC(=O)[C@H](CC(N)=O)NC(=O)[C@H](CC(C)C)NC(=O)[C@H](Cc1ccc(O)cc1)NC(=O)[C@H](CCCCN)NC(=O)[C@H](CCCCN)NC(=O)[C@@H](NC(=O)[C@H](C)NC(=O)[C@H](CCSC)NC(=O)[C@H](CCC(N)=O)NC(=O)[C@H](CCCCN)NC(=O)[C@H](CCCNC(=N)N)NC(=O)[C@H](CC(C)C)NC(=O)[C@H](CCCNC(=N)N)NC(=O)[C@@H](NC(=O)[C@H](Cc1ccc(O)cc1)NC(=O)[C@H](CC(N)=O)NC(=O)[C@H](CC(=O)O)NC(=O)[C@@H](NC(=O)[C@H](Cc1ccccc1)NC(=O)[C@@H](NC(=O)[C@H](C)NC(=O)[C@H](CC(=O)O)NC(=O)[C@H](CO)NC(=O)[C@@H](N)Cc1c[nH]cn1)C(C)C)[C@@H](C)O)[C@@H](C)O)C(C)C)[C@@H](C)CC)[C@@H](C)CC)C(=O)N[C@@H](CC(C)C)C(=O)N[C@@H](C)C(=O)N[C@@H](C)C(N)=O` [Example 25, VIP(1-28)-GAm(37-44)-NH2], in data set [1], the share remaining at 8 h, 0.5 μmol/L was determined as 118%; the fraction remaining at 48 h, 0.5 μmol/L was 118%; the “Remaining rate in plasma after 8 hours (%)” value was “not totally decomposed”; the “Remaining rate in plasma after 48 hours” value is listed as 118%. Moreover, the “Activity Intensity (%), maximum amount of cAMP produced relative to native VIP” value at endogenous VIP receptor came out at 81%.
Take `CC[C@H](C)[C@H](NC(=O)[C@H](CO)NC(=O)[C@H](CC(N)=O)NC(=O)[C@H](CC(C)C)NC(=O)[C@H](Cc1ccc(O)cc1)NC(=O)[C@H](CCCCN)NC(=O)[C@H](CCCCN)NC(=O)[C@@H](NC(=O)[C@H](C)NC(=O)[C@H](CCSC)NC(=O)[C@H](CCC(N)=O)NC(=O)[C@H](CCCCN)NC(=O)[C@H](CCCNC(=N)N)NC(=O)[C@H](CC(C)C)NC(=O)[C@H](CCCNC(=N)N)NC(=O)[C@@H](NC(=O)[C@H](Cc1ccc(O)cc1)NC(=O)[C@H](CC(N)=O)NC(=O)[C@H](CC(=O)O)NC(=O)[C@@H](NC(=O)[C@H](Cc1ccccc1)NC(=O)[C@@H](NC(=O)[C@H](C)NC(=O)[C@H](CC(=O)O)NC(=O)[C@H](CO)NC(=O)[C@@H](N)Cc1c[nH]cn1)C(C)C)[C@@H](C)O)[C@@H](C)O)C(C)C)C(=O)N[C@@H](CC(C)C)C(=O)N[C@@H](CC(N)=O)C(N)=O` [Comparative Example 14, VIP(1-28)-NH2, reference compound]: in data set [1], the fraction remaining at 8 h, 0.5 μmol/L is 0%; the fraction remaining at 48 h, 0.5 μmol/L turned out to be 0%; the “Remaining rate in plasma after 8 hours (%)” value is on record as “completely decomposed”. For the same compound, at endogenous VIP receptor, the “Activity Intensity (%), maximum amount of cAMP produced relative to native VIP” value came out at 100%.
For “HSDAVFTDNYTRLRKQMAVKKYLNSILNAKTVEGVKALIDEILAA-NH2 [Example 27, VIP(1-28)-GAm(28-44)-NH2]”, in data set [1], the share remaining at 8 h, 0.5 μmol/L was found to be 109%; the share remaining at 48 h, 0.5 μmol/L came to 35%; the “Remaining rate in plasma after 8 hours (%)” value is listed as “not totally decomposed”; the “Remaining rate in plasma after 48 hours” value turned out to be 35%. Moreover, the “Activity Intensity (%), maximum amount of cAMP produced relative to native VIP” value on endogenous VIP receptor stood at 67%.
Take “HSDAVFTDNYTRLRKQMAVKKYLNSILNEGVKALIDEILAA-NH2 [Example 26, VIP(1-28)-GAm(32-44)-NH2]”: in data set [1], the amount remaining at 8 h, 0.5 μmol/L came out at 99%; the fraction remaining at 48 h, 0.5 μmol/L is 47%; the “Remaining rate in plasma after 8 hours (%)” value is reported as “not totally decomposed”; the “Remaining rate in plasma after 48 hours” value came to 47%. Further, the “Activity Intensity (%), maximum amount of cAMP produced relative to native VIP” value at endogenous VIP receptor was found to be 85%.
For the compound `C[C@H](N)C(=O)NCC(=O)N[C@H]1CSSC[C@@H](C(N)=O)NC(=O)[C@H](CO)NC(=O)[C@H]([C@@H](C)O)NC(=O)[C@H](Cc2ccccc2)NC(=O)[C@H]([C@@H](C)O)NC(=O)[C@H](CCCCN)NC(=O)[C@H](Cc2c[nH]c3ccccc23)NC(=O)[C@H](Cc2ccccc2)NC(=O)[C@H](Cc2ccccc2)NC(=O)[C@H](CC(N)=O)NC(=O)[C@H](CCCCN)NC1=O` [Comparative Example 15, SRIF(1-14)-NH2, reference compound], the “Suppression rate of insulin secretion (%), maximum, relative to native SRIF” value on endogenous SSTR 5 is on record as 100%. Moreover, in data set [2] (SD, rat, plasma), the fraction remaining at 8 h, 0.5 μmol/L came to 0% and the share remaining at 48 h, 0.5 μmol/L was 0%. Moreover, the “Remaining rate in plasma after 8 hours (%)” value in data set [2] (somatostatin complexes, rat plasma, 0.5 μmol/L, 37° C., 8 hours) is reported as “completely decomposed”.
Take `CCCCCCCC(=O)OC[C@H](NC(=O)[C@H](CO)NC(=O)CN)C(=O)N[C@@H](Cc1ccccc1)C(=O)N[C@@H](CC(C)C)C(=O)N[C@@H](CO)C(=O)N1CCC[C@H]1C(=O)N[C@@H](CCC(=O)O)C(=O)N[C@@H](Cc1c[nH]cn1)C(=O)N[C@@H](CCC(N)=O)C(=O)N[C@@H](CCCNC(=N)N)C(=O)N[C@H](C(=O)N[C@@H](CCC(N)=O)C(=O)N[C@@H](CCC(N)=O)C(=O)N[C@@H](CCCNC(=N)N)C(=O)N[C@@H](CCCCN)C(=O)N[C@@H](CCC(=O)O)C(=O)N[C@@H](CO)C(=O)N[C@@H](CCCCN)C(=O)N[C@@H](CCCCN)C(=O)N1CCC[C@H]1C(=O)N1CCC[C@H]1C(=O)N[C@@H](C)C(=O)N[C@@H](CCCCN)C(=O)N[C@@H](CC(C)C)C(=O)N[C@@H](CCC(N)=O)C(=O)N1CCC[C@H]1C(=O)N[C@@H](CCCNC(=N)N)C(N)=O)C(C)C` [Comparative Example 17, Ghrelin(1-28)-NH2]: in data set [3] (0.5 μmol/L, 2 hours), the “Remaining rate in plasma after 2 hours (%)” value was found to be 14%. The amount remaining at 0.5 h, 0.5 μmol/L in data set [3] (SD, 0.5 hour, read-out: Remaining rate in plasma after 0.5 hour (%)) is 50%. Besides, in data set [3] (SD, 2 hours, read-out: Remaining rate in plasma after 2 hours (%)), the share remaining at 2 h, 0.5 μmol/L is 14%. Moreover, in data set [3] (SD, 8 hours, read-out: Remaining rate in plasma after 8 hours (%)), the amount remaining at 8 h, 0.5 μmol/L turned out to be 0%.

Values taken from patent publication US20130123460A1, “PEPTIDE FOR IMPROVING BIOSTABILITY OF BIOACTIVE SUBSTANCE, AND BIOACTIVE SUBSTANCE HAVING IMPROVED BIOSTABILITY” (priority 2010, published 2013).
